Data: EP4796557A1, “POLYPEPTIDE, BIOACTIVE CONJUGATE, AND PREPARATION METHOD THEREFOR AND USE THEREOF” (priority 2023, dated 2025)
Numbered stars: 1 amine (or outer) side, 2 acyl side, 3 side chain; on linkers, the order of the positions; unused ones are H or OH. Square brackets hold non-standard residues; d marks the D form. Peptide text beside a SMILES is read from it. * marks the point of attachment. Exatecan = CC[C@@]1(O)C(=O)OCc2c1cc1n(c2=O)Cc2c-1nc1cc(F)c(C)c3c1c2[C@@H](N*)CC3; Hexanoyl(6-maleimido) = O=C1C=CC(=O)N1CCCCCC(=O)*; PABC = O=C(OCc1ccc(N[*:1])cc1)[*:2]; Cit = NC(=O)NCCC[C@H](N)C(=O)O

Assays:
MMP9 = MMP9 (Homo sapiens, UniProt P14780); assay: Enzymolysis assay of the linker-payload by MMP9 (LC-MS); assay type: biochemical; settings: linker-payload 100 µmol, activated MMP9 0.2 µg/mL, 37°C, 24 h
Chain of MMP9 (P14780 107-707 limits assumed, species assumed): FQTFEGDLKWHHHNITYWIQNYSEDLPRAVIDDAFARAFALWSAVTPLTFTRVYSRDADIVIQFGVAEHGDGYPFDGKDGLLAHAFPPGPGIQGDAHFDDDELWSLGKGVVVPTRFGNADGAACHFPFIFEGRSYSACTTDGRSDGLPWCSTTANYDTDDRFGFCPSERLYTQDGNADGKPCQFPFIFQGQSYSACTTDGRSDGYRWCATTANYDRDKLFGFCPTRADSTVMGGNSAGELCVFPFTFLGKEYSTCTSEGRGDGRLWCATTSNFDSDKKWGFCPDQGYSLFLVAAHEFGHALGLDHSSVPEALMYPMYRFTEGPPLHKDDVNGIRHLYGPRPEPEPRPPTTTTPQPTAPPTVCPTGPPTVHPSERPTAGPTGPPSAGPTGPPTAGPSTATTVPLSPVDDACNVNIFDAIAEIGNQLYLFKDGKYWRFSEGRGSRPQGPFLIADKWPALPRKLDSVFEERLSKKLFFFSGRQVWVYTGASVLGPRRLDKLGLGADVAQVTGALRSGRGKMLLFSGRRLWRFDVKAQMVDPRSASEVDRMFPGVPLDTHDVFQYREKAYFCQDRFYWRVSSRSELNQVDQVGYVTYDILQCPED
Method: (§1) MMP9 having a final concentration of 200 µg/mL was mixed with 4 mM APMA at a ratio of 1:1 and placed in a 37°C water bath and incubated for 24 h to activate the MMP9 enzyme solution. Subsequently, the linker-payload having a final concentration of 100 µmol was incubated with the activated MMP9 solution having a final concentration of 0.2 µg/mL in a 37°C water bath for 24 h. After the reaction was complete, LC-MS analysis was performed.

MMP2 = biological target: T1, MMP2 (Homo sapiens, UniProt P08253); assay: Enzymolysis assay of the linker-payload by MMP2 (LC-MS); assay type: biochemical; settings: linker-payload 100 µmol, activated MMP2 1 µg/mL, 37°C, 24 h
T1 sequence (P08253 110-660): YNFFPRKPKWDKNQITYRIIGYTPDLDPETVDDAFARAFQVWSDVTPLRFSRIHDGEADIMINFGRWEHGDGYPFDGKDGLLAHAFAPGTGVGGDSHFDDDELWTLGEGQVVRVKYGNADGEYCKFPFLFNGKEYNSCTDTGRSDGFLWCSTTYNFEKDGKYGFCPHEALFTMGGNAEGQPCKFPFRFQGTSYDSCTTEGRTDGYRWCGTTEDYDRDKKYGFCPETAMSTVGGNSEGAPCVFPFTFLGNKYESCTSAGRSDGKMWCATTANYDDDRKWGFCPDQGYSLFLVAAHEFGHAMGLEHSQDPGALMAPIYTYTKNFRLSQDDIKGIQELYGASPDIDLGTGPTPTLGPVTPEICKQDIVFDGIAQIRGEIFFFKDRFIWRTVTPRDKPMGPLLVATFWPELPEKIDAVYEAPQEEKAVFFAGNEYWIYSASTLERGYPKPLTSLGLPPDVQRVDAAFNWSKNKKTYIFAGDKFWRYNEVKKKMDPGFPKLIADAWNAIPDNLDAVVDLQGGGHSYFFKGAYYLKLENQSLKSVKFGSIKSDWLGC
Method: as §1, with “MMP2” for “MMP9”, “1” for “0.2”

[1] = background statement; cited from earlier work

Row | Compound | MMP9 enzymolysis efficiency (%) (MMP9) | MMP2 enzymolysis efficiency (%) (MMP2) | half-life in plasma [1]
1 | CC[C@@]1(O)C(=O)OCc2c1cc1n(c2=O)Cc2c-1nc1cc(F)c(C)c3c1c2[C@@H](NC(=O)OCc1ccc(NC(=O)[C@H](CCCNC(N)=O)NC(=O)[C@@H](NC(=O)[C@H](CC(C)C)NC(=O)[C@H](CC(N)=O)NC(=O)[C@H](CCCNC(N)=O)NC(=O)[C@@H]2CCCN2C(=O)CCCCCN2C(=O)C=CC2=O)C(C)C)cc1)CC3 [Compound L064-P005, MC-PCitNLVCit-PAB-DX8951] ({Hexanoyl(6-maleimido)}-P[Cit]NLV[Cit][PABC]-Exatecan) | 52.70% | 42.89% | –
2 | CC[C@@]1(O)C(=O)OCc2c1cc1n(c2=O)Cc2c-1nc1cc(F)c(C)c3c1c2[C@@H](NC(=O)OCc1ccc(NC(=O)[C@H](CCCNC(N)=O)NC(=O)[C@@H](NC(=O)[C@H](CC(C)C)NC(=O)[C@H](CO)NC(=O)[C@H](C)NC(=O)[C@@H]2CCCN2C(=O)CCCCCN2C(=O)C=CC2=O)C(C)C)cc1)CC3 [Compound L065-P005, MC-PASLVCit-PAB-DX8951] ({Hexanoyl(6-maleimido)}-PASLV[Cit][PABC]-Exatecan) | 27.13% | 32.73% | –
3 | Trodelvy | – | – | less than 24 hours
